Data reported in patent US9540323B2 (BRISTOL-MYERS SQUIBB COMPANY, priority 2012, dated 2017).

Columns and labels:
[1] = molecular target: cloned human P2Y1 receptors (Homo sapiens (Human), UniProt P47900); assay: Binding Assay B - Scintillation Proximity Assay (SPA) for P2Y1 binding, [33P] 2MeS-ADP; details: SPA, 0.3 nM [33P] 2MeS-ADP, Cheng-Prusoff; read-out: P2Y1 Ki (nM) using binding assay B
Protocol: Binding Assay B—Scintillation Proximity Assay (SPA) for P2Y1 Binding
A SPA membrane binding assay was used to identify inhibitors of [^33P] […] Reactions were allowed to proceed to completion at room temperature for 1 hour followed by centrifugation of the plate for 5 min. About 40 μL of the aqueous solution was aspirated. Plates were sealed and the [^33P]

[2] = system: human platelet rich plasma (PRP); assay: ADP induced platelet aggregation assay; details: Homo sapiens, Platelet, 5 min, read-out: PA IC50 (μM) @ 10 μM ADP, human PRP, 10 μM ADP, AUC at 5 minute

Sequence of cloned human P2Y1 receptors (P47900 whole entry): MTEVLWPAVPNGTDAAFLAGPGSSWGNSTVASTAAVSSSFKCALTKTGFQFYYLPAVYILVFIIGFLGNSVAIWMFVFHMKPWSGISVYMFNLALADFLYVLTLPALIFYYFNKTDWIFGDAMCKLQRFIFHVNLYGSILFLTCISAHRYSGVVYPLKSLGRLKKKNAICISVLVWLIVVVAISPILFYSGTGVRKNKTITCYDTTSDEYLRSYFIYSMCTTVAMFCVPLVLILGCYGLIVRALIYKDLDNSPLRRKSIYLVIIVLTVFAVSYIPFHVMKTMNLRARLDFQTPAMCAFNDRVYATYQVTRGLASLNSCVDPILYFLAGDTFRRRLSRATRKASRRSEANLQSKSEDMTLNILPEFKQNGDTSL

Compound | Ki [1] [nM] | IC50 [2] [µM]
CC1(C)CN(c2ccccc2NC(=O)Nc2ccc(OC(F)(F)F)cc2)c2c(O)cc(F)c(-c3cnc(Cl)cn3)c21 [Example 163, 1-(2-(4-(5-Chloropyrazin-2-yl)-5-fluoro-7-hydroxy-3,3-dimethylindolin-1-yl)phenyl)-3-(4-(trifluoromethoxy)phenyl)urea] | 43.1 | 0.26
CC1(C)CN(c2ccccc2NC(=O)Nc2csc(Cl)n2)c2c(O)cc(F)c(-c3nc4cc(F)ccc4s3)c21 [Example 181, 1-(2-Chlorothiazol-4-yl)-3-(2-(5-fluoro-4-(5-fluorobenzo[d]thiazol-2-yl)-7-hydroxy-3,3-dimethylindolin-1-yl)phenyl)urea] | 9.7 | 0.49
CC1(C)CN(c2ccccc2NC(=O)Nc2nc3ccc(F)cc3s2)c2c(O)ccc(-c3nc4cc(Cl)ccc4s3)c21 [Example 100, 1-(2-(4-(5-Chlorobenzo[d]thiazol-2-yl)-7-hydroxy-3,3-dimethylindolin-1-yl)phenyl)-3-(6-fluorobenzo[d]thiazol-2-yl)urea] | 38.4 | 0.27
CC1(C)CN(c2ccccc2NC(=O)Nc2ccc(OC(F)(F)F)cc2)c2c(O)ccc(-c3ccc(F)c(F)c3)c21 [Example 204, 1-(2-(4-(3,4-Difluorophenyl)-7-hydroxy-3,3-dimethylindolin-1-yl)phenyl)-3-(4-(trifluoromethoxy)phenyl)urea] | 7.7 | 0.4
CC1(C)CN(c2ccccc2NC(=O)Nc2nc3ccc(F)cc3s2)c2c(O)ccc(-c3nc4ccc(F)cc4o3)c21 [Example 101, 1-(2-(4-(6-Fluorobenzo[d]oxazol-2-yl)-7-hydroxy-3,3-dimethylindolin-1-yl)phenyl)-3-(6-fluorobenzo[d]thiazol-2-yl)urea] | 31.9 | 0.67
CC(C)CN1CCC(c2ccc(NC(=O)Nc3ccccc3N3CC(C)(C)c4c(-c5ccc(F)cc5)ccc(O)c43)cc2)CC1 [Example 211, 1-(2-(4-(4-Fluorophenyl)-7-hydroxy-3,3-dimethylindolin-1-yl)phenyl)-3-(4-(1-isobutylpiperidin-4-yl)phenyl)urea] | 27.1 | 0.46
CC(C)Cn1cc(-c2c(F)cc(O)c3c2C(C)(C)CN3c2ccccc2NC(=O)Nc2ccc(OC(F)(F)F)cc2)cn1 [Example 184, 1-(2-(5-Fluoro-7-hydroxy-4-(1-isobutyl-1H-pyrazol-4-yl)-3,3-dimethylindolin-1-yl)phenyl)-3-(4-(trifluoromethoxy)phenyl)urea] | 10.7 | 0.26
CCOC(=O)C1(C)CN(c2ccccc2NC(=O)Nc2csc(Cl)n2)c2c(O)ccc(Cl)c21 (stereo not drawn) [Example 75, Ethyl 4-chloro-1-(2-(3-(2-chlorothiazol-4-yl)ureido)phenyl)-7-hydroxy-3-methylindoline-3-carboxylate] | 7.1 | 0.56
CCC1(CC)CN(c2ccccc2NC(=O)Nc2ccc(C3CCN(CC(C)(C)C)CC3)cc2)c2c(O)ccc(F)c21 [Example 4, 1-(2-(3,3-Diethyl-4-fluoro-7-hydroxyindolin-1-yl)phenyl)-3-(4-(1-neopentylpiperidin-4-yl)phenyl)urea] | 5.6 | 0.36
CC1(C)CN(c2ccccc2NC(=O)Nc2csc(Cl)n2)c2c(O)cc(F)c(-c3ccc(F)cc3)c21 [Example 212, 1-(2-Chlorothiazol-4-yl)-3-(2-(5-fluoro-4-(4-fluorophenyl)-7-hydroxy-3,3-dimethylindolin-1-yl)phenyl)urea] | 4.9 | 0.16
CC1(C)CN(c2ccccc2NC(=O)Nc2ccc(OC(F)(F)F)cc2)c2c(O)ccc(-c3ccccc3F)c21 [Example 207, 1-(2-(4-(2-Fluorophenyl)-7-hydroxy-3,3-dimethylindolin-1-yl)phenyl)-3-(4-(trifluoromethoxy)phenyl)urea] | 8.7 | 0.08
CC1(C)CN(c2ccccc2NC(=O)Nc2nc3ccc(F)cc3s2)c2c(O)cc(F)c(-c3nc4cc(F)ccc4s3)c21 [Example 152, 1-(2-(5-Fluoro-4-(5-fluorobenzo[d]thiazol-2-yl)-7-hydroxy-3,3-dimethylindolin-1-yl)phenyl)-3-(6-fluorobenzo[d]thiazol-2-yl)urea] | 25.4 | 0.3
CC1(C)CN(c2ccccc2NC(=O)Nc2nc3ccc(Cl)cc3s2)c2c(O)ccc(-c3nc4ccc(F)cc4s3)c21 [Example 128, 1-(6-Chlorobenzo[d]thiazol-2-yl)-3-(2-(4-(6-fluorobenzo[d]thiazol-2-yl)-7-hydroxy-3,3-dimethylindolin-1-yl)phenyl)urea] | 108 | 0.24
CC1(C)CN(c2ccccc2NC(=O)Nc2csc(Cl)n2)c2c(O)ccc(C(F)(F)F)c21 [Example 16, 1-(2-Chlorothiazol-4-yl)-3-(2-(7-hydroxy-3,3-dimethyl-4-(trifluoromethyl)indolin-1-yl)phenyl)urea] | 6.2 | 0.12
CC(C)(C)c1ncc(-c2c(F)cc(O)c3c2C(C)(C)CN3c2ccccc2NC(=O)Nc2ccc(OC(F)(F)F)cc2)cn1 [Example 160, 1-(2-(4-(2-(tert-Butyl)pyrimidin-5-yl)-5-fluoro-7-hydroxy-3,3-dimethylindolin-1-yl)phenyl)-3-(4-(trifluoromethoxy)phenyl)urea] | 13.1 | 0.09
CCC1(CC)CN(c2ccccc2NC(=O)Nc2ccc(C3CCN(CC(C)(C)C)CC3)cc2)c2c(O)ccc(C(F)(F)F)c21 [Example 25, 1-(2-(3,3-Diethyl-7-hydroxy-4-(trifluoromethyl)indolin-1-yl)phenyl)-3-(4-(1-neopentylpiperidin-4-yl)phenyl)urea] | 6.3 | 0.26
CC1(C)CN(c2ccccc2NC(=O)Nc2ccc(OC(F)(F)F)cc2)c2c(O)ccc(-c3cncc(Cl)c3)c21 [Example 116, 1-(2-(4-(5-Chloropyridin-3-yl)-7-hydroxy-3,3-dimethylindolin-1-yl)phenyl)-3-(4-(trifluoromethoxy)phenyl) urea] | 22.4 | 0.5
CC1(C)CN(c2ccccc2NC(=O)Nc2ccc(OC(F)(F)F)cc2)c2c(O)ccc(-c3cnc(Cl)cn3)c21 [Example 131, 1-(2-(4-(5-Chloropyrazin-2-yl)-7-hydroxy-3,3-dimethylindolin-1-yl)phenyl)-3-(4-(trifluoromethoxy)phenyl)urea] | 9.1 | 0.42
CC(C)n1nc(-c2c(F)cc(O)c3c2C(C)(C)CN3c2ccccc2NC(=O)Nc2nc3ccc(Cl)cc3s2)cc1C(F)(F)F [Example 266, 1-(6-Chlorobenzo[d]thiazol-2-yl)-3-(2-(5-fluoro-7-hydroxy-4-(1-isopropyl-5-(trifluoromethyl)-1H-pyrazol-3-yl)-3,3-dimethylindolin-1-yl)phenyl)urea] | 41.1 | 0.13
CC1(C)CN(c2ccccc2NC(=O)Nc2nc3ccc(F)cc3s2)c2c(O)ccc(-c3ccc(F)cc3)c21 [Example 210, 1-(6-Fluorobenzo[d]thiazol-2-yl)-3-(2-(4-(4-fluorophenyl)-7-hydroxy-3,3-dimethylindolin-1-yl)phenyl)urea] | 12.4 | 0.08
CC(C)CN1CCCC1c1ccc(NC(=O)Nc2ccccc2N2CC(C)(C)c3c(-c4ccc(F)cc4)ccc(O)c32)cc1 (stereo not drawn) [Example 200, 1-(2-(4-(4-Fluorophenyl)-7-hydroxy-3,3-dimethylindolin-1-yl)phenyl)-3-(4-(1-isobutylpyrrolidin-2-yl)phenyl)urea] | 4.6 | 0.05
CC1(C)CN(c2ccccc2NC(=O)Nc2csc(C(F)(F)F)n2)c2c(O)cc(F)c(-c3ccc(F)cc3)c21 [Example 228, 1-(2-(5-Fluoro-4-(4-fluorophenyl)-7-hydroxy-3,3-dimethylindolin-1-yl)phenyl)-3-(2-(trifluoromethyl)thiazol-4-yl)urea] | 13.6 | 0.3
Cc1cccc2nc(-c3ccc(O)c4c3C(C)(C)CN4c3ccccc3NC(=O)Nc3ccc(OC(F)(F)F)cc3)oc12 [Example 93, 1-(2-(7-Hydroxy-3,3-dimethyl-4-(7-methylbenzo[d]oxazol-2-yl)indolin-1-yl)phenyl)-3-(4-(trifluoromethoxy)phenyl)urea] | 52 | 0.8
CC(C)n1nc(-c2c(F)cc(O)c3c2C(C)(C)CN3c2ccccc2NC(=O)Nc2ccc(OC(F)(F)F)cc2)cc1C(F)(F)F [Example 271, 1-(2-(5-Fluoro-7-hydroxy-4-(1-isopropyl-5-(trifluoromethyl)-1H-pyrazol-3-yl)-3,3-dimethylindolin-1-yl)phenyl)-3-(4-(trifluoromethoxy)phenyl)urea] | 12.4 | 0.07
CC(C)(C)c1nc(-c2c(F)cc(O)c3c2C(C)(C)CN3c2ccccc2NC(=O)Nc2ccc(OC(F)(F)F)cc2)co1 [Example 259, 1-(2-(4-(2-(tert-Butyl)oxazol-4-yl)-5-fluoro-7-hydroxy-3,3-dimethylindolin-1-yl)phenyl)-3-(4-(trifluoromethoxy)phenyl)urea] | 46.3 | 0.58
CC1(C)CN(c2ccccc2NC(=O)Nc2ccc(OC(F)(F)F)cc2)c2c(O)ccc(C3=NCC(C(F)(F)F)O3)c21 (stereo not drawn) [Example 105, 1-(2-(7-Hydroxy-3,3-dimethyl-4-(5-(trifluoromethyl)-4,5-dihydrooxazol-2-yl)indolin-1-yl)phenyl)-3-(4-(trifluoromethoxy)phenyl)urea] | 8.8 | 1.57
CC(C)n1nc(C(F)(F)F)cc1-c1c(F)cc(O)c2c1C(C)(C)CN2c1ccccc1NC(=O)Nc1nc2ccc(Cl)cc2s1 [Example 268, 1-(6-Chlorobenzo[d]thiazol-2-yl)-3-(2-(5-fluoro-7-hydroxy-4-(1-isopropyl-3-(trifluoromethyl)-1H-pyrazol-5-yl)-3,3-dimethylindolin-1-yl)phenyl)urea] | 18.1 | 0.45
